Target: Integrin alpha-IIb/beta-3 (Homo sapiens, UniProt P05106+P08514)
Experiment: Inhibition of integrin alphaIIb-beta3 binding
Assay type: protein-complex assay

Integrin alpha-IIb/beta-3, sequence (P05106 27-788 limits assumed): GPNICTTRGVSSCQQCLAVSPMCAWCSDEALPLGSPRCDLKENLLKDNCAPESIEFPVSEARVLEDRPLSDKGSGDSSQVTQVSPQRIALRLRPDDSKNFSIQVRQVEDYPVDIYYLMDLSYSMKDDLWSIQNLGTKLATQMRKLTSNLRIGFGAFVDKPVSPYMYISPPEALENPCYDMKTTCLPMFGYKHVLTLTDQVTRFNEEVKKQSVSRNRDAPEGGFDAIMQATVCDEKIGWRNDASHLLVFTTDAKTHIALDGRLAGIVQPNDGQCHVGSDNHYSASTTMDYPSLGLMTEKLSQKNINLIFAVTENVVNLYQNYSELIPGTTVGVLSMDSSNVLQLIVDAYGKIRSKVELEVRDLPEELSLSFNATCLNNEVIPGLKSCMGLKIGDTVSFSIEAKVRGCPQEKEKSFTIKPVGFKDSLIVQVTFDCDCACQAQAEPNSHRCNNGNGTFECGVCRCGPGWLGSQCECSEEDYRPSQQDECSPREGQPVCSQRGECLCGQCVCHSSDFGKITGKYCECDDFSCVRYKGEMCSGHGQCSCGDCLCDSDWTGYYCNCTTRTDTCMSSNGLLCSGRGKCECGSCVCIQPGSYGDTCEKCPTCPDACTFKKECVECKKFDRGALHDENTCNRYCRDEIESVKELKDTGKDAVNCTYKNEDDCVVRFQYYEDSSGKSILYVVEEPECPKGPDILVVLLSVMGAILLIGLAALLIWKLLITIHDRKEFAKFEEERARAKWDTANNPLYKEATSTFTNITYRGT
Integrin alpha-IIb/beta-3, sequence (P08514 32-887 limits assumed): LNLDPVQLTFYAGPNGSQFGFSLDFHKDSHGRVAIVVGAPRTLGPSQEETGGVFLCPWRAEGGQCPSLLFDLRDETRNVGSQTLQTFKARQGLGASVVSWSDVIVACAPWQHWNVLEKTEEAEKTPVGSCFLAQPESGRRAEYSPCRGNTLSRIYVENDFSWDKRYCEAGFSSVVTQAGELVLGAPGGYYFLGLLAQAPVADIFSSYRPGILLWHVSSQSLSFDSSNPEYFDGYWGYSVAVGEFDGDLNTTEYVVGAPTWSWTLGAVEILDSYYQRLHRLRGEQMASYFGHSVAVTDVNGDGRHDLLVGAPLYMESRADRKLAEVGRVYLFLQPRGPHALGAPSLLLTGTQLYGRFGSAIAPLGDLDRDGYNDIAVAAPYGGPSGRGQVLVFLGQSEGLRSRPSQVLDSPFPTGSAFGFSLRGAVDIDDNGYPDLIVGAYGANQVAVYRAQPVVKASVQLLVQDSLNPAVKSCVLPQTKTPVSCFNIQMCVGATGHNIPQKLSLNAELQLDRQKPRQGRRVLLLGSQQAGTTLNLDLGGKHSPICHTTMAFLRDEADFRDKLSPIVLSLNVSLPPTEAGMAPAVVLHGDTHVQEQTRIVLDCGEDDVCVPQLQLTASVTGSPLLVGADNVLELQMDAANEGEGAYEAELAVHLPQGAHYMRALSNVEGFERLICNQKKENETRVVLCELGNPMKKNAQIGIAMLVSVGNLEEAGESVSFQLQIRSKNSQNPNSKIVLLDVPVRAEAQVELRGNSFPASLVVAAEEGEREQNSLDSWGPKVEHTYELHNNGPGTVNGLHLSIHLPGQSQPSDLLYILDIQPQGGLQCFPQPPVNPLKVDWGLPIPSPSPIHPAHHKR
Integrin alpha-IIb/beta-3, sequence (P08514 891-1039 limits assumed): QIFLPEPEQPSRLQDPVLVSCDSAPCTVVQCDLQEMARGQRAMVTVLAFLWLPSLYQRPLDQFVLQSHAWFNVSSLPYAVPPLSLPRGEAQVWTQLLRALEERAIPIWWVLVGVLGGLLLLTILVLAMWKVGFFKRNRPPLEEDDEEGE

N=C(N)NCCC[C@H](N)C(=O)NCC(=O)N[C@@H](CC(=O)O)C(=O)O
IC50: > 1 mM

Reference: ChEMBL document CHEMBL1134590, “Determination of the binding specificity of an integral membrane protein by saturation transfer difference NMR: RGD peptide ligands binding to integrin alphaIIbbeta3” (J Med Chem, 2001)
